SMILES strings stand for the structures. Where only a bound is given, the exact number is not on record here.

The subject of this test is SU-DHL-4 cell line. As to the kind of experiment: SU-DHL-4 cell proliferation assay (Cell Titer-Glo viability). Type of test: cell-based. The note with it: Homo sapiens; cell viability IC50 activity level, DLBCL cell line SU-DHL-4, 120 hours post-treatment; read-out: SU-DHL-4 Act. In outline:
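Viability read by ATP luminescence (Cell Titer-Glo) at the start and after 120 h of growth at 37°C in 5% CO2. DLBCL cells were seeded at 500 per well with compound across 0.5 nM–10 μM in 20 points, 0.1% DMSO. A four-parameter sigmoidal fit gave IC50 as 50% of DMSO control.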
Background: In ATP-based viability assays light output follows the ATP content of the culture.
Turning to `CC1(C)CN(c2ccc(C#N)nc2)CCN1Cc1ccc(CNc2cccc3c2C(=O)N(C2CCC(=O)NC2=O)C3=O)cc1` (stereo not drawn) [Cpd 85, 5-(4-(4-((2-(2,6-dioxopiperidin-3-yl)-1,3-dioxoisoindolin-4-ylamino)methyl)benzyl)-3,3-dimethylpiperazin-1-yl)picolinonitrile], the IC50 was under 200 nM. In the case of `CC1(C)CN(c2ccc(C(N)=O)nc2)CCN1Cc1ccc(CNc2cccc3c2C(=O)N(C2CCC(=O)NC2=O)C3=O)cc1` (stereo not drawn) [Cpd 86, 5-(4-(4-((2-(2,6-dioxopiperidin-3-yl)-1,3-dioxoisoindolin-4-ylamino)methyl)benzyl)-3,3-dimethylpiperazin-1-yl)picolinamide], the IC50 was under 200 nM.

Take `Cc1cc(CNc2cccc3c2C(=O)N(C2CCC(=O)NC2=O)C3=O)ccc1CN1CCC(OC(C)(C)C)CC1` (stereo not drawn) [Cpd 87, 4-(4-((4-tert-butoxypiperidin-1-yl)methyl)-3-methylbenzylamino)-2-(2,6-dioxopiperidin-3-yl)isoindoline-1,3-dione]: the IC50 was under 200 nM. To `CCC1(O)CCN(Cc2ccc(CNc3cccc4c3C(=O)N(C3CCC(=O)NC3=O)C4=O)cc2)CC1` (stereo not drawn) [Cpd 88, 2-(2,6-dioxopiperidin-3-yl)-4-(4-((4-ethyl-4-hydroxypiperidin-1-yl)methyl)benzylamino)isoindoline-1,3-dione] belongs 501 to 750 nM; to `CCOC1(C)CCN(Cc2ccc(CNc3cccc4c3C(=O)N(C3CCC(=O)NC3=O)C4=O)cc2)CC1` (stereo not drawn) [Cpd 89, 2-(2,6-dioxopiperidin-3-yl)-4-(4-((4-ethoxy-4-methylpiperidin-1-yl)methyl)benzylamino)isoindoline-1,3-dione], under 200 nM. To `O=C1CCC(N2C(=O)c3cccc(NCc4ccc(CN5CCC6(CCCO6)CC5)cc4)c3C2=O)C(=O)N1` (stereo not drawn) [Cpd 90, 4-(4-(1-oxa-8-azaspiro[4.5]decan-8-ylmethyl)benzylamino)-2-(2,6-dioxopiperidin-3-yl)isoindoline-1,3-dione] belongs under 200 nM; to `NC(=O)c1ccc(N2CCN(Cc3ccc(CNc4cccc5c4C(=O)N([C@@H]4CCC(=O)NC4=O)C5=O)cc3)CC2)cn1` [Cpd 91, (R)-5-(4-(4-((2-(2,6-dioxopiperidin-3-yl)-1,3-dioxoisoindolin-4-ylamino)methyl)benzyl)piperazin-1-yl)picolinamide], under 200 nM; to `CC(C)(C)C1CCN(Cc2ccc(CNc3cccc4c3C(=O)N(C3CCC(=O)NC3=O)C4=O)cc2F)CC1` (stereo not drawn) [Cpd 92, 4-(4-((4-tert-butylpiperidin-1-yl)methyl)-3-fluorobenzylamino)-2-(2,6-dioxopiperidin-3-yl)isoindoline-1,3-dione], under 200 nM. To `CC(C)(C)N1CCN(Cc2ccc(CNc3cccc4c3C(=O)N(C3CCC(=O)NC3=O)C4=O)cc2F)CC1` (stereo not drawn) [Cpd 93, 4-(4-((4-tert-butylpiperazin-1-yl)methyl)-3-fluorobenzylamino)-2-(2,6-dioxopiperidin-3-yl)isoindoline-1,3-dione] belongs under 200 nM; to `CC(C)(C)C1CCN(Cc2ccc(CNc3cccc4c3C(=O)N(C3CCC(=O)NC3=O)C4=O)c(F)c2)CC1` (stereo not drawn) [Cpd 94, 4-(4-((4-tert-butylpiperidin-1-yl)methyl)-2-fluorobenzylamino)-2-(2,6-dioxopiperidin-3-yl)isoindoline-1,3-dione], under 200 nM; to `CC(C)(C)N1CCN(Cc2ccc(CNc3cccc4c3C(=O)N(C3CCC(=O)NC3=O)C4=O)c(F)c2)CC1` (stereo not drawn) [Cpd 95, 4-(4-((4-tert-butylpiperazin-1-yl)methyl)-2-fluorobenzylamino)-2-(2,6-dioxopiperidin-3-yl)isoindoline-1,3-dione], under 200 nM. For the compound `Cc1cc(CN2CCC(C(C)(C)C)CC2)ccc1CNc1cccc2c1C(=O)N(C1CCC(=O)NC1=O)C2=O` (stereo not drawn) [Cpd 96, 4-(4-((4-tert-butylpiperidin-1-yl)methyl)-2-methylbenzylamino)-2-(2,6-dioxopiperidin-3-yl)isoindoline-1,3-dione], the IC50 was under 200 nM. For the compound `Cc1cc(CN2CCN(C(C)(C)C)CC2)ccc1CNc1cccc2c1C(=O)N(C1CCC(=O)NC1=O)C2=O` (stereo not drawn) [Cpd 97, 4-(4-((4-tert-butylpiperazin-1-yl)methyl)-2-methylbenzylamino)-2-(2,6-dioxopiperidin-3-yl)isoindolline-1,3-dione], the IC50 lay within 501 to 750 nM.

In the case of `NC(=O)c1ccc(N2CCN(Cc3ccc(CNc4cccc5c4C(=O)N(C4CCC(=O)NC4=O)C5=O)cc3F)CC2)cn1` (stereo not drawn) [Cpd 98, 5-(4-(4-((2-(2,6-dioxopiperidin-3-yl)-1,3-dioxoisoindolin-4-ylamino)methyl)-2-fluorobenzyl)piperazin-1-yl)picolinamide], the IC50 is under 200 nM.

With `CC(C)C1CCN(Cc2ccc(CNc3cccc4c3C(=O)N(C3CCC(=O)NC3=O)C4=O)cc2F)CC1` (stereo not drawn) [Cpd 99, 2-(2,6-dioxopiperidin-3-yl)-4-(3-fluoro-4-((4-isopropylpiperidin-1-yl)methyl)benzylamino)isoindoline-1,3-dione], the IC50 is under 200 nM.

As for `Cc1cc(CN2CCC(C(C)C)CC2)ccc1CNc1cccc2c1C(=O)N(C1CCC(=O)NC1=O)C2=O` (stereo not drawn) [Cpd 100, 2-(2,6-dioxopiperidin-3-yl)-4-(4-((4-isopropylpiperidin-1-yl)methyl)-2-methylbenzylamino)isoindoline-1,3-dione], the IC50 lay in the range of 200 to 500 nM. The figure for `Cc1cc(CN2CCN(c3ccc(F)cc3F)CC2)ccc1CNc1cccc2c1C(=O)N(C1CCC(=O)NC1=O)C2=O` (stereo not drawn) [Cpd 101, 4-(4-((4-(2,4-difluorophenyl)piperazin-1-yl)methyl)-2-methylbenzylamino)-2-(2,6-dioxopiperidin-3-yl)isoindoline-1,3-dione] is 200 to 500 nM; for `N#Cc1ccc(C2CN(Cc3ccc(CNc4cccc5c4C(=O)N(C4CCC(=O)NC4=O)C5=O)cc3F)C2)cc1` (stereo not drawn) [Cpd 102, 4-(1-(4-((2-(2,6-dioxopiperidin-3-yl)-1,3-dioxoisoindolin-4-ylamino)methyl)-2-fluorobenzyl)azetidin-3-yl)benzonitrile] it is under 200 nM. To `CC(C)C1CCN(Cc2ccc(CNc3cccc4c3C(=O)N(C3CCC(=O)NC3=O)C4=O)c(F)c2)CC1` (stereo not drawn) [Cpd 103, 2-(2,6-dioxopiperidin-3-yl)-4-(2-fluoro-4-((4-isopropylpiperidin-1-yl)methyl)benzylamino)isoindoline-1,3-dione] belongs under 200 nM; to `N#Cc1ccc(C2CN(Cc3ccc(CNc4cccc5c4C(=O)N(C4CCC(=O)NC4=O)C5=O)c(F)c3)C2)cc1` (stereo not drawn) [Cpd 104, 4-(1-(4-((2-(2,6-dioxopiperidin-3-yl)-1,3-dioxoisoindolin-4-ylamino)methyl)-3-fluorobenzyl)azetidin-3-yl)benzonitrile], under 200 nM.

On to `Cc1cc(CN2CC(c3ccc(C#N)cc3)C2)ccc1CNc1cccc2c1C(=O)N(C1CCC(=O)NC1=O)C2=O` (stereo not drawn) [Cpd 105, 4-(1-(4-((2-(2,6-dioxopiperidin-3-yl)-1,3-dioxoisoindoliln-4-ylamino)methyl)-3-methylbenzyl)azetidin-3-yl)benzonitrile], for which the IC50 is under 200 nM.

Regarding `O=C1CCC(N2C(=O)c3cccc(NCc4ccc(CN5CCC(n6cccn6)CC5)c(F)c4)c3C2=O)C(=O)N1` (stereo not drawn) [Cpd 106, 4-(4-((4-(1H-pyrazol-1-yl)piperidin-1-yl)methyl)-3-fluorobenzylamino)-2-(2,6-dioxopiperidin-3-yl)isoindoline-1,3-dione], the IC50 lay within 200 to 500 nM. The figure for `O=C1CCC(N2C(=O)c3cccc(NCc4ccc(CN5CCC(n6cccn6)CC5)cc4F)c3C2=O)C(=O)N1` (stereo not drawn) [Cpd 107, 4-(4-((4-(1H-pyrazol-1-yl)piperidin-1-yl)methyl)-2-fluorobenzylamino)-2-(2,6-dioxopiperidin-3-yl)isoindoline-1,3-dione] is under 200 nM; for `O=C1CCC(N2C(=O)c3cccc(NCc4ccc(CN5CCN(c6ccc(F)cc6F)CC5)cc4F)c3C2=O)C(=O)N1` (stereo not drawn) [Cpd 108, 4-(4-((4-(2,4-difluorophenyl)piperazin-1-yl)methyl)-2-fluorobenzylamino)-2-(2,6-dioxopiperidin-3-yl)isoindoline-1,3-dione] it is under 200 nM. On to `O=C1CCC(N2C(=O)c3cccc(NCc4ccc(CN5CCN(c6ccc(F)cc6F)CC5)c(F)c4)c3C2=O)C(=O)N1` (stereo not drawn) [Cpd 109, 4-(4-((4-(2,4-difluorophenyl)piperazin-1-yl)methyl)-3-fluorobenzylamino)-2-(2,6-dioxopiperidin-3-yl)isoindoline-1,3-dione], for which the IC50 is under 200 nM. The figure for `NC(=O)c1ccc(N2CCN(Cc3ccc(CNc4cccc5c4C(=O)N(C4CCC(=O)NC4=O)C5=O)c(F)c3)CC2)cn1` (stereo not drawn) [Cpd 110, 5-(4-(4-((2-(2,6-dioxopiperidin-3-yl)-1,3-dioxoisoindolin-4-ylamino)methyl)-3-fluorobenzyl)piperazin-1-yl)picolinamide] is under 200 nM; for `O=C1CCC(N2C(=O)c3cccc(NCc4ccc(CN5CCC(O)(c6ccccn6)CC5)cc4)c3C2=O)C(=O)N1` (stereo not drawn) [Cpd 111, 2-(2,6-dioxopiperidin-3-yl)-4-(4-((4-hydroxy-4-(pyridin-2-yl)piperidin-1-yl)methyl)benzylamino)isoindoline-1,3-dione] it is under 200 nM. To `CCC1CN(Cc2ccc(CNc3cccc4c3C(=O)N(C3CCC(=O)NC3=O)C4=O)cc2)C1` (stereo not drawn) [Cpd 112, 2-(2,6-dioxopiperidin-3-yl)-4-(4-((3-ethylazetidin-1-yl)methyl)benzylamino)isoindoline-1,3-dione] belongs 200 to 500 nM; to `CC(C)C1CN(Cc2ccc(CNc3cccc4c3C(=O)N(C3CCC(=O)NC3=O)C4=O)cc2)C1` (stereo not drawn) [Cpd 113, 2-(2,6-dioxopiperidin-3-yl)-4-(4-((3-isopropylazetidin-1-yl)methyl)benzylamino)isoindoline-1,3-dione], 200 to 500 nM.

For the compound `CC(C)(C)C1CN(Cc2ccc(CNc3cccc4c3C(=O)N(C3CCC(=O)NC3=O)C4=O)cc2)C1` (stereo not drawn) [Cpd 114, 4-(4-((3-tert-butylazetidin-1-yl)methyl)benzylamino)-2-(2,6-dioxopiperidin-3-yl)isoindoline-1,3-dione], the IC50 was under 200 nM.

For the origin of these results see US11358952B2, “Substituted 4-aminoisoindoline-1,3-dione compounds, compositions thereof, and methods of treatment therewith” (Celgene Corporation, priority 2018, dated 2022).
